Experimental data published in ChEMBL document CHEMBL5032507, “Selective Pseudo-irreversible Butyrylcholinesterase Inhibitors Transferring Antioxidant Moieties to the Enzyme Show Pronounced Neuroprotective Efficacy In Vitro and In Vivo in an Alzheimer's Disease Mouse Model” (J Med Chem, 2021).
Calls of active or inactive are those of the source. The calls are words filed in the database; no cut-off is given here.

Assays:
N9 [1] = test: Immunomodulatory activity in mouse N9 microglial cells assessed as increase in LPS-induced TREM2 expression at 2.5 to 5 uM incubated for 24 hrs by Western blot analysis; format: functional, cell-based; conditions: dose 2.5-5 µM
Mus musculus [2] = test: Anti-alzheimer activity against amyloid beta 25-35 induced learning impairments in BChE KO mouse assessed as increase in latency to enter dark compartment at 0.3 mg/kg, ip administered once daily for 7 days and measured on day 9 by passive avoidance test; format: functional, organism-based; conditions: time 7.0 day
Mus musculus [3] = test: Anti-alzheimer activity against amyloid beta 25-35 induced learning impairments in wild type 129 SV mouse assessed as increase in latency to enter dark compartment at 0.3 mg/kg, ip administered once daily for 7 days and measured on day 9 by passive avoidance test; format: functional, organism-based; conditions: time 7.0 day
Mus musculus [4] = test: Anti-alzheimer activity against amyloid beta 25-35 induced learning impairments in Swiss mouse assessed as increase in spontaneous alteration performance by measuring total number of arm entries at 0.3 to 1 mg/kg, ip administered once daily for 7 days and measured on day 8 by Y-maze test; format: functional, organism-based; conditions: dose 0.3-1 mg/kg, time 7.0 day
[5] = Neurotoxicity in mouse HT-22 cells assessed as reduction in cell viability at 25 uM incubated for 24 hrs by MTT assay; format: cell-based; conditions: ht-22, 24 h
N9 [6] = test: Immunomodulatory activity in mouse N9 microglial cells assessed as reduction in LPS-induced iNOS expression at 0.1 to 5 uM incubated for 24 hrs by Western blot analysis; format: functional, cell-based; conditions: dose 0.1-5 µM
Cholinesterase [7] = target: T1, Cholinesterase (Homo sapiens, UniProt P06276)
T1 sequence (P06276 whole entry): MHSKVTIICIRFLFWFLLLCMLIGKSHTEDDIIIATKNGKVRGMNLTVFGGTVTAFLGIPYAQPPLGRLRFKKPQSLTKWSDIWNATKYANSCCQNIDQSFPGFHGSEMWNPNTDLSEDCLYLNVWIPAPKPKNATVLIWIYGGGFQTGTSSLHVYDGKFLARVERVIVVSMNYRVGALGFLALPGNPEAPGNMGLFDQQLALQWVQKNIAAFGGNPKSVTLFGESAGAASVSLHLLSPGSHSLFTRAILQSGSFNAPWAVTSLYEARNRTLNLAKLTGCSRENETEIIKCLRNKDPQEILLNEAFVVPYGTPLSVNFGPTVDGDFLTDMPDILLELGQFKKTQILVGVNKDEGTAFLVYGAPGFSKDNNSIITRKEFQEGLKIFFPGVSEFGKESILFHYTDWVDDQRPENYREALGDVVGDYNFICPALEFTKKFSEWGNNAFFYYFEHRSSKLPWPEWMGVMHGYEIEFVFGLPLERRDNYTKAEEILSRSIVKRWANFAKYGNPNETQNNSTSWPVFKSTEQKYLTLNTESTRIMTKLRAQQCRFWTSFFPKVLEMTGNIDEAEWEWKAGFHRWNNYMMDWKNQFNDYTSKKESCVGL
Description: Binding affinity to human serum BChE assessed as half life

Mus musculus [8] = test: Anti-alzheimer activity against amyloid beta 25-35 induced learning impairments in Swiss mouse assessed as latency to enter dark compartment at 0.1 mg/kg, ip administered once daily for 7 days and measured on day 8 by passive avoidance test; format: functional, organism-based; conditions: time 7.0 day
N9 [9] = test: Immunomodulatory activity in mouse N9 microglial cells assessed as reduction in LPS-induced nitrite accumulation at 0.1 to 5 uM incubated for 24 hrs by Griess reagent based colorimetry assay; format: functional, cell-based; conditions: dose 0.1-5 µM
N9 [10] = test: Immunomodulatory activity in mouse N9 microglial cells assessed as reduction in LPS-induced IL-1beta release at 0.5 to 5 uM incubated for 24 hrs by Western blot analysis; format: functional, cell-based; conditions: dose 0.5-5 µM
[11] = Metal chelating activity assessed as compound-Cu2+ complex formation at ratio of 10:1 incubated for 2 mins followed by pyrocatechol violet addition and further incubated for 10 mins in dark by absorbance based assay; conditions: time 12.0 min
[12] = Toxicity in Swiss mouse assessed as change in weight gain at 0.1 to 3 mg/kg, ip administered for 7 days; format: organism-based; conditions: in vivo, 168 h, dose 0.1-3 mg/kg, time 7 day
HT-22 [13] = test: Neuroprotective activity against glutamate induced-oxidative stress in mouse HT-22 cells assessed as cell viability at 5 uM incubated for 24 hrs by MTT assay; format: functional, cell-based
Cholinesterase [14] = target: T1, Cholinesterase; test: Inhibition of human BChE using butyrylthiocholine iodide as substrate incubated for 20 mins followed by substrate addition by Ellman's method
[15] = target: Acetylcholinesterase (Homo sapiens) (UniProt P22303); test: Inhibition of human AChE using acetylthiocholine iodide as substrate at 10 uM incubated for 20 mins followed by substrate addition by Ellman's method relative to control
Chain of Acetylcholinesterase (Homo sapiens) (P22303 whole entry): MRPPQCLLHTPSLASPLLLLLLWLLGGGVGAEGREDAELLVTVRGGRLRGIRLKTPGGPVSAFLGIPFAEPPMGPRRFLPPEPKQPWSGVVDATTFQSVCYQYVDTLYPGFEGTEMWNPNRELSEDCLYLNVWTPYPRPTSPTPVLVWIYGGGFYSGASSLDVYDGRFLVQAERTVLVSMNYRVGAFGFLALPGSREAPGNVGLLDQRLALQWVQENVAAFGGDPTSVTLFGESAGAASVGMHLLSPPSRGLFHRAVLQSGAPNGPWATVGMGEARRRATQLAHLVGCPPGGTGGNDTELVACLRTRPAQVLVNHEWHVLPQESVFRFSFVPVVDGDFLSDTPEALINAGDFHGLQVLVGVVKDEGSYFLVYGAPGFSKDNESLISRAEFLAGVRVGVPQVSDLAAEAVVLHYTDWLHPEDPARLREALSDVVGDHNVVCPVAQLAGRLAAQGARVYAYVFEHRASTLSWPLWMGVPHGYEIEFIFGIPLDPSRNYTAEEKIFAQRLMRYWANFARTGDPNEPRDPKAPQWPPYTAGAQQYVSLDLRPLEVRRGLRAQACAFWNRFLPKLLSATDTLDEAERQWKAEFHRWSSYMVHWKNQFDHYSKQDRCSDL

Mus musculus [16] = test: Anti-alzheimer activity against amyloid beta 25-35 induced learning impairments in BChE KO mouse assessed as memory deficit in alternation performance by measuring total number of arm entries at 0.3 mg/kg, ip qd administered for 7 days and measured on day 8 by Y-maze test; format: functional, organism-based; conditions: time 7.0 day
[17] = Metal chelating activity assessed as Fe2+ -ferrozoine complex formation at ratio of 10:1 incubated for 2 mins followed by ferrozine addition and further incubated for 10 mins by absorbance based assay; conditions: time 12.0 min
Mus musculus [18] = test: Anti-alzheimer activity against amyloid beta 25-35 induced learning impairments in wild type 129 SV mouse assessed as increase in spontaneous alternation performance by measuring total number of arm entries at 0.3 mg/kg, ip administered once daily for 7 days and measured on day 8 by Y-maze test; format: functional, organism-based; conditions: time 7.0 day
[19] = Toxicity in Swiss mouse assessed as change in normal behaviour at 0.1 to 3 mg/kg, ip administered for 7 days; format: organism-based; conditions: in vivo, 168 h, dose 0.1-3 mg/kg, time 7 day
Mus musculus [20] = test: Anti-alzheimer activity against amyloid beta 25-35 induced learning impairments in Swiss mouse assessed as latency to enter dark compartment at 0.3 mg/kg, ip administered once daily for 7 days and measured on day 8 by passive avoidance test; format: functional, organism-based; conditions: time 7.0 day
Mus musculus [21] = test: Anti-alzheimer activity against amyloid beta 25-35 induced learning impairments in Swiss mouse assessed as increase in spontaneous alteration performance by measuring total number of arm entries at 1 mg/kg, ip administered once daily for 7 days and measured on day 8 by Y-maze test; format: functional, organism-based; conditions: time 7.0 day
HT-22 [22] = test: Neuroprotective activity against glutamate induced-oxidative stress in mouse HT-22 cells assessed as cell viability at 10 uM incubated for 24 hrs by MTT assay; format: functional, cell-based
N9 [23] = test: Immunomodulatory activity in mouse N9 microglial cells assessed as reduction in LPS-induced IL-1beta release at 0.1 to 5 uM incubated for 24 hrs by Western blot analysis; format: functional, cell-based; conditions: dose 0.1-5 µM
HT-22 [24] = test: Neuroprotective activity against glutamate induced-oxidative stress in mouse HT-22 cells assessed as cell viability at 1 to 25 uM incubated for 24 hrs by MTT assay; format: functional, cell-based; conditions: dose 1-25 µM
N9 [25] = test: Immunomodulatory activity in mouse N9 microglial cells assessed as reduction in LPS-induced IL-1beta release at 2.5 to 5 uM incubated for 24 hrs by Western blot analysis; format: functional, cell-based; conditions: dose 2.5-5 µM
N9 [26] = test: Immunomodulatory activity in mouse N9 microglial cells assessed as reduction in LPS-induced iNOS expression at 2.5 to 5 uM incubated for 24 hrs by Western blot analysis; format: functional, cell-based; conditions: dose 2.5-5 µM
N9 [27] = test: Immunomodulatory activity in mouse N9 microglial cells assessed as reduction in LPS-induced nitrite accumulation at 2.5 to 5 uM incubated for 24 hrs by Griess reagent based colorimetry assay; format: functional, cell-based; conditions: dose 2.5-5 µM

COc1ccc2[nH]cc(CCNC(=O)CCCCCCNC(=O)Oc3ccc4c(c3)CN3CCc5ccccc5C3N4C)c2c1 (stereo not given)
Activity (N9 [1]): Active | Activity (Mus musculus [2]): inactive | Activity (Mus musculus [3]): Active | Activity (Mus musculus [4]): Active | Activity [5]: Non-Toxic | Activity (N9 [6]): Active | T1/2 (Cholinesterase [7]): 3 h | Activity (Mus musculus [8]): Active | Activity (N9 [9]): Active | Activity (N9 [10]): Active | Activity [11]: inactive | Activity [12]: Non-Toxic | Activity (HT-22 [13]): Active | IC50 (Cholinesterase [14]; read-out: IC50): 102 nM | IC50 (Cholinesterase [14]; read-out: pIC50 (converted)): 204 nM | inhibition [15]: 6.5% | Activity (Mus musculus [16]): inactive | Activity [17]: inactive | Activity (Mus musculus [18]): Active | Activity [19]: Non-Toxic

Cc1c(C)c2c(c(C)c1O)CCC(C)(C(=O)NCCCCNC(=O)Oc1ccc3c(c1)CN1CCc4ccccc4C1N3C)O2 (stereo not given)
IC50 (Cholinesterase [14]; read-out: IC50): 791 nM | inhibition [15]: 15.2%

CN1c2ccc(OC(=O)NCCCCNC(=O)/C=C/c3ccccc3)cc2CN2CCc3ccccc3C21 (stereo not given)
IC50 (Cholinesterase [14]; read-out: IC50): 221 nM | inhibition [15]: 6.1%

COc1cc(/C=C/C(=O)NCCCCCCNC(=O)Oc2ccc3c(c2)CN2CCc4ccccc4C2N3C)ccc1O (stereo not given)
IC50 (Cholinesterase [14]; read-out: IC50): 166 nM | inhibition [15]: 20%

COc1ccc2[nH]cc(CCNC(=O)CCCCNC(=O)Oc3ccc4c(c3)CN3CCc5ccccc5C3N4C)c2c1 (stereo not given)
IC50 (Cholinesterase [14]; read-out: IC50): 127 nM | inhibition [15]: 15%

COc1cc(/C=C/C(=O)NCCCCNC(=O)Oc2ccc3c(c2)CN2CCc4ccccc4C2N3C)ccc1O (stereo not given)
Activity (N9 [1]): Active | Activity [5]: Non-Toxic | Activity (Mus musculus [20]): Active | Activity (Mus musculus [21]): Active | Activity (N9 [6]): Active | T1/2 (Cholinesterase [7]): 2.4 h | Activity (N9 [9]): Active | Activity [11]: inactive | Activity [12]: Non-Toxic | IC50 (Cholinesterase [14]; read-out: IC50): 155 nM | IC50 (Cholinesterase [14]; read-out: pIC50 (converted)): 115 nM | inhibition [15]: 7.7% | Activity (HT-22 [22]): Active | Activity [17]: inactive | Activity (N9 [23]): Active | Activity [19]: Non-Toxic

COc1ccc2[nH]cc(CCNC(C)=O)c2c1 [MELATONIN]
Activity [5]: Non-Toxic | Activity [11]: inactive | Activity (HT-22 [24]): inactive | Activity (N9 [25]): inactive | Activity (N9 [26]): inactive | Activity [17]: inactive | Activity (N9 [27]): inactive

COc1ccc2[nH]cc(CCNC(=O)CCNC(=O)Oc3ccc4c(c3)CN3CCc5ccccc5C3N4C)c2c1 (stereo not given)
IC50 (Cholinesterase [14]; read-out: IC50): 482 nM | inhibition [15]: 2.3%

COc1cc(/C=C/C(=O)O)ccc1O [FERULATE]
Activity [5]: Non-Toxic | Activity [11]: inactive | Activity (HT-22 [24]): inactive | Activity (N9 [25]): inactive | Activity (N9 [26]): inactive | Activity [17]: inactive | Activity (N9 [27]): inactive

Cc1c(C)c2c(c(C)c1O)CCC(C)(C(=O)NCCCCCCNC(=O)Oc1ccc3c(c1)CN1CCc4ccccc4C1N3C)O2 (stereo not given)
IC50 (Cholinesterase [14]; read-out: IC50): 255 nM | IC50 (Cholinesterase [14]; read-out: pIC50 (converted)): 9330 nM | inhibition [15]: 24.1%

CN1c2ccc(OC(=O)NCCCCCCNC(=O)/C=C/c3ccccc3)cc2CN2CCc3ccccc3C21 (stereo not given)
IC50 (Cholinesterase [14]; read-out: IC50): 442 nM | inhibition [15]: 37.5%
